Test results reported in patent publication US20110166121A1 (LG LIFE SCIENCES LTD., priority 2008, published 2011).
Counter-ions that a name gives are not always drawn.

System: Human platelet aggregation caused by ADP
Assay: Inhibition of ADP-induced platelet aggregation (Mimic-human PRP)
Type: cell-based
Conditions: 20 μM ADP, human platelet concentrate diluted with PPP, absorption at 595 nm
How it was run: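 Ki came from non-linear sigmoidal fits of inhibition, measured as the 3-min rise in absorbance at 595 nm after 20 μM ADP, relative to 0/20 μM ADP controls. Platelets (3–4×10^8/mL in PPP-diluted human PRP) were exposed to 0.01–30 μM compound for 20 min at room temperature beforehand.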

SMILES | Ki
CCCc1cc2c(N3CCn4c(nnc4C(F)(F)F)C3)nc(OC[C@@H]3CCCN3)nc2s1 [Example 7-37, Hydrochloric acid salt of 7-[6-Propyl-2-((S)-1-pyrrolidin-2-ylmethoxy)-thieno[2,3-d]pyrimidin-4-yl]-3-trifluoromethyl-5,6,7,8-tetrahydro-[1,2,4]triazolo[4,3-a]pyrazine] | 280 nM
CCCc1cc2c(N3CCn4c(nnc4C(F)(F)F)C3)nc(NCCN)nc2s1 [Example 7-38, Hydrochloric acid salt of N-1-[6-Propyl-4-(3-trifluoromethyl-5,6-dihydro-8H-[1,2,4]triazolo[4,3-a]pyrazin-7-yl)-thieno[2,3-d]pyrimidin-2-yl]-ethane-1,2-diamine] | 50 nM
CCCc1cc2c(N3CCn4c(nnc4C(F)(F)F)C3)nc(N3CC[C@@H](CNC(C)=O)C3)nc2s1 [Example 8-1, N-{(S)-1-[6-Propyl-4-(3-trifluoromethyl-5,6-dihydro-8H-[1,2,4]triazolo[4,3-a]pyrazin-7-yl)-thieno[2,3-d]pyrimidin-2-yl]-pyrrolidin-3-ylmethyl}-acetamide] | 35 nM
CCCC(=O)NC[C@@H]1CCN(c2nc(N3CCn4c(nnc4C(F)(F)F)C3)c3cc(CCC)sc3n2)C1 [Example 8-2, N-{(S)-1-[6-Propyl-4-(3-trifluoromethyl-5,6-dihydro-8H-[1,2,4]triazolo[4,3-a]pyrazin-7-yl)-thieno[2,3-d]pyrimidin-2-yl]-pyrrolidin-3-ylmethyl}-butyramide] | 110 nM
CCCc1cc2c(N3CCn4c(nnc4C(F)(F)F)C3)nc(N3CC[C@@H](CNC(=O)C(C)C)C3)nc2s1 [Example 8-3, N-{(S)-1-[6-Propyl-4-(3-trifluoromethyl-5,6-dihydro-8H-[1,2,4]triazolo[4,3-a]pyrazin-7-yl)-thieno[2,3-d]pyrimidin-2-yl]-pyrrolidin-3-ylmethyl}-isobutyramide] | 330 nM
CCCc1cc2c(N3CCn4c(nnc4C(F)(F)F)C3)nc(N3CC[C@H](CNC(C)=O)C3)nc2s1 [Example 8-4, N-{(R)-1-[6-Propyl-4-(3-trifluoromethyl-5,6-dihydro-8H-[1,2,4]triazolo[4,3-a]pyrazin-7-yl)-thieno[2,3-d]pyrimidin-2-yl]-pyrrolidin-3-ylmethyl}-acetamide] | 14 nM
CCCc1cc2c(N3CCn4c(nnc4C(F)(F)F)C3)nc(N3CC[C@H](CNC(=O)C(C)C)C3)nc2s1 [Example 8-6, N-{(R)-1-[6-Propyl-4-(3-trifluoromethyl-5,6-dihydro-8H-[1,2,4]triazolo[4,3-a]pyrazin-7-yl)-thieno[2,3-d]pyrimidin-2-yl]-pyrrolidin-3-ylmethyl}-isobutyramide] | 120 nM
CCCc1cc2c(N3CCn4c(nnc4C(F)(F)F)C3)nc(NCCNC(C)=O)nc2s1 [Example 8-7, N-{2-[6-Propyl-4-(3-trifluoromethyl-5,6-dihydro-8H-[1,2,4]triazolo[4,3-a]pyrazin-7-yl)-thieno[2,3-d]pyrimidin-2-ylamino]-ethyl}-acetamide] | 32 nM
CCCC(=O)NCCNc1nc(N2CCn3c(nnc3C(F)(F)F)C2)c2cc(CCC)sc2n1 [Example 8-8, N-{2-[6-Propyl-4-(3-trifluoromethyl-5,6-dihydro-8H-[1,2,4]triazolo[4,3-a]pyrazin-7-yl)-thieno[2,3-d]pyrimidin-2-ylamino]-ethyl}-butyramide] | 85 nM
CCCc1cc2c(N3CCn4c(nnc4C(F)(F)F)C3)nc(NCCNC(=O)C(C)C)nc2s1 [Example 8-9, N-{2-[6-Propyl-4-(3-trifluoromethyl-5,6-dihydro-8H-[1,2,4]triazolo[4,3-a]pyrazin-7-yl)-thieno[2,3-d]pyrimidin-2-ylamino]-ethyl}-isobutyramide] | 150 nM
CCCc1cc2c(N3CCn4c(nnc4C(F)(F)F)C3)nc(NC3CN(C(C)=O)C3)nc2s1 [Example 8-10, 1-{3-[6-Propyl-4-(3-trifluoromethyl-5,6-dihydro-8H-[1,2,4]triazolo[4,3-a]pyrazin-7-yl)-thieno[2,3-d]pyrimidin-2-ylamino]-azetidin-1-yl}-ethanone] | 110 nM
CCCc1cc2c(N3CCn4c(nnc4C(F)(F)F)C3)nc(N[C@H]3CCN(C(C)=O)C3)nc2s1 [Example 8-13, 1-{(S)-3-[6-Propyl-4-(3-trifluoromethyl-5,6-dihydro-8H-[1,2,4]triazolo[4,3-a]pyrazin-7-yl)-thieno[2,3-d]pyrimidin-2-ylamino]-pyrrolidin-1-yl}-ethanone] | 3 nM
CCCC(=O)N1CC[C@H](Nc2nc(N3CCn4c(nnc4C(F)(F)F)C3)c3cc(CCC)sc3n2)C1 [Example 8-14, 1-{(S)-3-[6-Propyl-4-(3-trifluoromethyl-5,6-dihydro-8H-[1,2,4]triazolo[4,3-a]pyrazin-7-yl)-thieno[2,3-d]pyrimidin-2-ylamino]-pyrrolidin-1-yl}-butan-1-one] | 3 nM
CCCc1cc2c(N3CCn4c(nnc4C(F)(F)F)C3)nc(N[C@H]3CCN(C(=O)C(C)C)C3)nc2s1 [Example 8-15, 2-Methyl-1-{(S)-3-[6-propyl-4-(3-trifluoromethyl-5,6-dihydro-8H-[1,2,4]triazolo[4,3-a]pyrazin-7-yl)-thieno[2,3-d]pyrimidin-2-ylamino]-pyrrolidin-1-yl}-propan-1-one] | 7 nM
CCCc1cc2c(N3CCn4c(nnc4C(F)(F)F)C3)nc(N[C@@H]3CCN(C(C)=O)C3)nc2s1 [Example 8-16, 1-{(R)-3-[6-Propyl-4-(3-trifluoromethyl-5,6-dihydro-8H-[1,2,4]triazolo[4,3-a]pyrazin-7-yl)-thieno[2,3-d]pyrimidin-2-ylamino]-pyrrolidin-1-yl}-ethanone] | 35 nM
CCCC(=O)N1CC[C@@H](Nc2nc(N3CCn4c(nnc4C(F)(F)F)C3)c3cc(CCC)sc3n2)C1 [Example 8-17, 1-{(R)-3-[6-Propyl-4-(3-trifluoromethyl-5,6-dihydro-8H-[1,2,4]triazolo[4,3-a]pyrazin-7-yl)-thieno[2,3-d]pyrimidin-2-ylamino]-pyrrolidin-1-yl}-butan-1-one] | 35 nM
CCCc1cc2c(N3CCn4c(nnc4C(F)(F)F)C3)nc(N[C@@H]3CCN(C(=O)C(C)C)C3)nc2s1 [Example 8-18, 2-Methyl-1-{(R)-3-[6-propyl-4-(3-trifluoromethyl-5,6-dihydro-8H-[1,2,4]triazolo[4,3-a]pyrazin-7-yl)-thieno[2,3-d]pyrimidin-2-ylamino]-pyrrolidin-1-yl}-propan-1-one] | 41 nM
CCCc1cc2c(N3CCn4c(nnc4C(F)(F)F)C3)nc(NC[C@@H]3CCN(C(C)=O)C3)nc2s1 [Example 8-19, 1-((S)-3-{[6-Propyl-4-(3-trifluoromethyl-5,6-dihydro-8H-[1,2,4]triazolo[4,3-a]pyrazin-7-yl)-thieno[2,3-d]pyrimidin-2-ylamino]-methyl}-pyrrolidin-1-yl)-ethanone] | 150 nM
CCCC(=O)N1CC[C@@H](CNc2nc(N3CCn4c(nnc4C(F)(F)F)C3)c3cc(CCC)sc3n2)C1 [Example 8-20, 1-((S)-3-{[6-Propyl-4-(3-trifluoromethyl-5,6-dihydro-8H-[1,2,4]triazolo[4,3-a]pyrazin-7-yl)-thieno[2,3-d]pyrimidin-2-ylamino]-methyl}-pyrrolidin-1-yl)-butan-1-one] | 410 nM
CCCc1cc2c(N3CCn4c(nnc4C(F)(F)F)C3)nc(NC[C@@H]3CCN(C(=O)C(C)C)C3)nc2s1 [Example 8-21, 2-Methyl-1-((S)-3-{[6-propyl-4-(3-trifluoromethyl-5,6-dihydro-8H-[1,2,4]triazolo[4,3-a]pyrazin-7-yl)-thieno[2,3-d]pyrimidin-2-ylamino]-methyl}-pyrrolidin-1-yl)-propan-1-one] | 270 nM
CCCc1cc2c(N3CCn4c(nnc4C(F)(F)F)C3)nc(NC[C@H]3CCN(C(C)=O)C3)nc2s1 [Example 8-22, 1-((R)-3-{[6-Propyl-4-(3-trifluoromethyl-5,6-dihydro-8H-[1,2,4]triazolo[4,3-a]pyrazin-7-yl)-thieno[2,3-d]pyrimidin-2-ylamino]-methyl}-pyrrolidin-1-yl)-ethanone] | 220 nM
CCCC(=O)N1CC[C@H](CNc2nc(N3CCn4c(nnc4C(F)(F)F)C3)c3cc(CCC)sc3n2)C1 [Example 8-23, 1-((R)-3-{[6-Propyl-4-(3-trifluoromethyl-5,6-dihydro-8H-[1,2,4]triazolo[4,3-a]pyrazin-7-yl)-thieno[2,3-d]pyrimidin-2-ylamino]-methyl}-pyrrolidin-1-yl)-butan-1-one] | 570 nM
CCCc1cc2c(N3CCn4c(nnc4C(F)(F)F)C3)nc(NC[C@H]3CCN(C(=O)C(C)C)C3)nc2s1 [Example 8-24, 2-Methyl-1-((R)-3-{[6-propyl-4-(3-trifluoromethyl-5,6-dihydro-8H-[1,2,4]triazolo[4,3-a]pyrazin-7-yl)-thieno[2,3-d]pyrimidin-2-ylamino]-methyl}-pyrrolidin-1-yl)-propan-1-one] | 1400 nM
CCCc1cc2c(N3CCn4c(nnc4C(F)(F)F)C3)nc(OC3CN(C(=O)C(C)C)C3)nc2s1 [Example 8-27, 2-Methyl-1-{3-[6-propyl-4-(3-trifluoromethyl-5,6-dihydro-8H-[1,2,4]triazolo[4,3-a]pyrazin-7-yl)-thieno[2,3-d]pyrimidin-2-yloxy]-azetidin-1-yl}-propan-1-one] | 260 nM
CCCc1cc2c(N3CCn4c(nnc4C(F)(F)F)C3)nc(OC[C@H]3CCCN3C(C)=O)nc2s1 [Example 8-28, -{(R)-2-[6-Propyl-4-(3-trifluoromethyl-5,6-dihydro-8H-[1,2,4]triazolo[4,3-a]pyrazin-7-yl)-thieno[2,3-d]pyrimidin-2-yloxymethyl]-pyrrolidin-1-yl}-ethanone] | 45 nM
CCCC(=O)N1CCC[C@@H]1COc1nc(N2CCn3c(nnc3C(F)(F)F)C2)c2cc(CCC)sc2n1 [Example 8-29, 1-{(R)-2-[6-Propyl-4-(3-trifluoromethyl-5,6-dihydro-8H-[1,2,4]triazolo[4,3-a]pyrazin-7-yl)-thieno[2,3-d]pyrimidin-2-yloxymethyl]-pyrrolidin-1-yl}-butan-1-one] | 170 nM
